{"source": "patent US20100029669A1", "about": "“3-(SUBSTITUTED ETHYL)-RIFAMYCIN DERIVATIVES USEFUL AS ANTIMICROBIAL AGENTS” (priority 2008, published 2010)", "key": {"[1]": {"tested_on": "Staphylococcus aureus OC4172", "assay": "MIC, microdilution broth method (NCCLS), strain C", "assay_type": "cell-based", "conditions": "cation adjusted Mueller-Hinton broth, 35° C., 16-20 hours"}, "[2]": {"tested_on": "Enterococcus faecium OC 3312 vancomycin resistant", "assay": "MIC, microdilution broth method (NCCLS), strain A", "conditions": "read-out: MIC A Strain", "procedure": "(§1) The in vitro antimicrobial activity of representative compounds of the present invention was determined by the microdilution broth method following the test method from the National Committee for Clinical Laboratory Standards (NCCLS).\n(§2) In this method two-fold serial dilutions of drug in cation adjusted Mueller-Hinton broth were added to wells in microdilution trays. The test organisms were prepared by adjusting the turbidity of actively growing broth cultures so that the final concentration of test organism after it is added to the wells was approximately 5×10^4 CFU/well. Following inoculation of the microdilution trays, the trays were incubated at 35° C. for 16-20 hours and then read. The amount of growth in the wells containing the test compound was compared with the amount of growth in the growth-control wells (no test compound) used in each tray."}, "[3]": {"tested_on": "Methicillin-resistant Staphylococcus aureus OC 3726 COL", "assay": "MIC, microdilution broth method (NCCLS), strain B", "conditions": "read-out: MIC B Strain", "procedure": "as §1, §2"}, "[4]": {"tested_on": "Methicillin-resistant Staphylococcus aureus OC 2878", "assay": "MIC, microdilution broth method (NCCLS), strain D", "conditions": "read-out: MIC D Strain", "procedure": "as §1, §2"}}, "data": [{"smiles": "CO[C@H]1/C=C/O[C@@]2(C)Oc3c(C)c(O)c4c(O)c(c([C@H](O)C[N+](=O)[O-])c(O)c4c3C2=O)NC(=O)/C(C)=C\\C=C\\[C@H](C)[C@H](O)[C@@H](C)[C@@H](O)[C@@H](C)[C@H](OC(C)=O)[C@@H]1C", "note": "(single isomer, unassigned) [Compound 5]", "values": [{"measurement": "MIC", "setting": "[1]", "value": 8, "unit": "µg/mL"}, {"measurement": "MIC", "setting": "[2]", "value": 8, "unit": "µg/mL"}, {"measurement": "MIC", "setting": "[3]", "value": 8, "unit": "µg/mL"}, {"measurement": "MIC", "setting": "[4]", "value": 8, "unit": "µg/mL"}]}, {"smiles": "CO[C@H]1/C=C/O[C@@]2(C)Oc3c(C)c(O)c4c(c3C2=O)C(=O)C(CC[N+](=O)[O-])=C(NC(=O)/C(C)=C\\C=C\\[C@H](C)[C@H](O)[C@@H](C)[C@@H](O)[C@@H](C)[C@H](OC(C)=O)[C@@H]1C)C4=O", "note": "[Compound 1]", "values": [{"measurement": "MIC", "setting": "[1]", "value": "≤ 0.03", "unit": "µg/mL"}, {"measurement": "MIC", "setting": "[2]", "value": 0.12, "unit": "µg/mL"}, {"measurement": "MIC", "setting": "[3]", "value": "≤ 0.03", "unit": "µg/mL"}, {"measurement": "MIC", "setting": "[4]", "value": "≤ 0.03", "unit": "µg/mL"}]}, {"smiles": "CO[C@H]1/C=C/O[C@@]2(C)Oc3c(C)c(O)c4c(O)c(c(CC[N+](=O)[O-])c(O)c4c3C2=O)NC(=O)/C(C)=C\\C=C\\[C@H](C)[C@H](O)[C@@H](C)[C@@H](O)[C@@H](C)[C@H](OC(C)=O)[C@@H]1C", "note": "[Compound 2]", "values": [{"measurement": "MIC", "setting": "[1]", "value": "≤ 0.03", "unit": "µg/mL"}, {"measurement": "MIC", "setting": "[2]", "value": 1, "unit": "µg/mL"}, {"measurement": "MIC", "setting": "[3]", "value": "≤ 0.03", "unit": "µg/mL"}, {"measurement": "MIC", "setting": "[4]", "value": "≤ 0.03", "unit": "µg/mL"}]}, {"smiles": "CO[C@H]1/C=C/O[C@@]2(C)Oc3c(C)c(O)c4c(O)c(c(C(C[N+](=O)[O-])C[N+](=O)[O-])c(O)c4c3C2=O)NC(=O)/C(C)=C\\C=C\\[C@H](C)[C@H](O)[C@@H](C)[C@@H](O)[C@@H](C)[C@H](OC(C)=O)[C@@H]1C", "note": "[Compound 3]", "values": [{"measurement": "MIC", "setting": "[1]", "value": 0.25, "unit": "µg/mL"}, {"measurement": "MIC", "setting": "[2]", "value": 4, "unit": "µg/mL"}, {"measurement": "MIC", "setting": "[3]", "value": 0.5, "unit": "µg/mL"}, {"measurement": "MIC", "setting": "[4]", "value": 0.25, "unit": "µg/mL"}]}, {"smiles": "CO[C@H]1/C=C/O[C@@]2(C)Oc3c(C)c(O)c4c(c3C2=O)C(=O)C(C(C[N+](=O)[O-])C[N+](=O)[O-])=C(NC(=O)/C(C)=C\\C=C\\[C@H](C)[C@H](O)[C@@H](C)[C@@H](O)[C@@H](C)[C@H](OC(C)=O)[C@@H]1C)C4=O", "note": "[Compound 4]", "values": [{"measurement": "MIC", "setting": "[1]", "value": 0.5, "unit": "µg/mL"}, {"measurement": "MIC", "setting": "[2]", "value": 2, "unit": "µg/mL"}, {"measurement": "MIC", "setting": "[3]", "value": 1, "unit": "µg/mL"}, {"measurement": "MIC", "setting": "[4]", "value": 0.5, "unit": "µg/mL"}]}, {"smiles": "CO[C@H]1/C=C/O[C@@]2(C)Oc3c(C)c(O)c4c(O)c(c(C(CN)CN)c(O)c4c3C2=O)NC(=O)/C(C)=C\\C=C\\[C@H](C)[C@H](O)[C@@H](C)[C@@H](O)[C@@H](C)[C@H](OC(C)=O)[C@@H]1C", "note": "[Compound 8]", "values": [{"measurement": "MIC", "setting": "[1]", "value": 0.25, "unit": "µg/mL"}, {"measurement": "MIC", "setting": "[2]", "value": 1, "unit": "µg/mL"}, {"measurement": "MIC", "setting": "[3]", "value": 0.5, "unit": "µg/mL"}, {"measurement": "MIC", "setting": "[4]", "value": 1, "unit": "µg/mL"}]}, {"smiles": "CO[C@H]1/C=C/O[C@@]2(C)Oc3c(C)c(O)c4c(O)c(c(CCNCc5ccccc5)c(O)c4c3C2=O)NC(=O)/C(C)=C\\C=C\\[C@H](C)[C@H](O)[C@@H](C)[C@@H](O)[C@@H](C)[C@H](OC(C)=O)[C@@H]1C", "note": "[Compound 9]", "values": [{"measurement": "MIC", "setting": "[1]", "value": "≤ 0.03", "unit": "µg/mL"}, {"measurement": "MIC", "setting": "[2]", "value": 0.12, "unit": "µg/mL"}, {"measurement": "MIC", "setting": "[3]", "value": "≤ 0.03", "unit": "µg/mL"}, {"measurement": "MIC", "setting": "[4]", "value": "≤ 0.03", "unit": "µg/mL"}]}, {"smiles": "CO[C@H]1/C=C/O[C@@]2(C)Oc3c(C)c(O)c4c(O)c(c(CCN(C)C)c(O)c4c3C2=O)NC(=O)/C(C)=C\\C=C\\[C@H](C)[C@H](O)[C@@H](C)[C@@H](O)[C@@H](C)[C@H](OC(C)=O)[C@@H]1C", "note": "[Compound 10]", "values": [{"measurement": "MIC", "setting": "[1]", "value": "≤ 0.03", "unit": "µg/mL"}, {"measurement": "MIC", "setting": "[2]", "value": 0.25, "unit": "µg/mL"}, {"measurement": "MIC", "setting": "[3]", "value": "≤ 0.03", "unit": "µg/mL"}, {"measurement": "MIC", "setting": "[4]", "value": 0.06, "unit": "µg/mL"}]}, {"smiles": "CO[C@H]1/C=C/O[C@@]2(C)Oc3c(C)c(O)c4c(O)c(c(CCN5CCCCC5)c(O)c4c3C2=O)NC(=O)/C(C)=C\\C=C\\[C@H](C)[C@H](O)[C@@H](C)[C@@H](O)[C@@H](C)[C@H](OC(C)=O)[C@@H]1C", "note": "[Compound 11]", "values": [{"measurement": "MIC", "setting": "[1]", "value": "≤ 0.03", "unit": "µg/mL"}, {"measurement": "MIC", "setting": "[2]", "value": 0.25, "unit": "µg/mL"}, {"measurement": "MIC", "setting": "[3]", "value": 0.06, "unit": "µg/mL"}, {"measurement": "MIC", "setting": "[4]", "value": 0.06, "unit": "µg/mL"}]}, {"smiles": "CO[C@H]1/C=C/O[C@@]2(C)Oc3c(C)c(O)c4c(O)c(c(CCNCc5ccc(N6CCN(C)CC6)cc5)c(O)c4c3C2=O)NC(=O)/C(C)=C\\C=C\\[C@H](C)[C@H](O)[C@@H](C)[C@@H](O)[C@@H](C)[C@H](OC(C)=O)[C@@H]1C", "note": "[Compound 12]", "values": [{"measurement": "MIC", "setting": "[1]", "value": "≤ 0.03", "unit": "µg/mL"}, {"measurement": "MIC", "setting": "[2]", "value": 0.5, "unit": "µg/mL"}, {"measurement": "MIC", "setting": "[3]", "value": "≤ 0.03", "unit": "µg/mL"}, {"measurement": "MIC", "setting": "[4]", "value": "≤ 0.03", "unit": "µg/mL"}]}, {"smiles": "CO[C@H]1/C=C/O[C@@]2(C)Oc3c(C)c(O)c4c(O)c(c(CCNCc5ccc(-n6cccn6)cc5)c(O)c4c3C2=O)NC(=O)/C(C)=C\\C=C\\[C@H](C)[C@H](O)[C@@H](C)[C@@H](O)[C@@H](C)[C@H](OC(C)=O)[C@@H]1C", "note": "[Compound 13]", "values": [{"measurement": "MIC", "setting": "[1]", "value": 0.12, "unit": "µg/mL"}, {"measurement": "MIC", "setting": "[2]", "value": 0.5, "unit": "µg/mL"}, {"measurement": "MIC", "setting": "[3]", "value": 0.12, "unit": "µg/mL"}, {"measurement": "MIC", "setting": "[4]", "value": 0.12, "unit": "µg/mL"}]}, {"smiles": "CO[C@H]1/C=C/O[C@@]2(C)Oc3c(C)c(O)c4c(O)c(c(CCNCc5ccc(-c6ncccn6)cc5)c(O)c4c3C2=O)NC(=O)/C(C)=C\\C=C\\[C@H](C)[C@H](O)[C@@H](C)[C@@H](O)[C@@H](C)[C@H](OC(C)=O)[C@@H]1C", "note": "[Compound 14]", "values": [{"measurement": "MIC", "setting": "[1]", "value": 0.5, "unit": "µg/mL"}, {"measurement": "MIC", "setting": "[2]", "value": 1, "unit": "µg/mL"}, {"measurement": "MIC", "setting": "[3]", "value": 1, "unit": "µg/mL"}, {"measurement": "MIC", "setting": "[4]", "value": 0.5, "unit": "µg/mL"}]}, {"smiles": "CO[C@H]1/C=C/O[C@@]2(C)Oc3c(C)c(O)c4c(O)c(c(CCNCc5ccc(-c6cccnn6)cc5)c(O)c4c3C2=O)NC(=O)/C(C)=C\\C=C\\[C@H](C)[C@H](O)[C@@H](C)[C@@H](O)[C@@H](C)[C@H](OC(C)=O)[C@@H]1C", "note": "[Compound 15]", "values": [{"measurement": "MIC", "setting": "[1]", "value": 0.25, "unit": "µg/mL"}, {"measurement": "MIC", "setting": "[2]", "value": 1, "unit": "µg/mL"}, {"measurement": "MIC", "setting": "[3]", "value": 0.5, "unit": "µg/mL"}, {"measurement": "MIC", "setting": "[4]", "value": 0.25, "unit": "µg/mL"}]}]}
